Measured values: ChEMBL document CHEMBL1137495, “Synthesis and TNF expression inhibitory properties of new thalidomide analogues derived via Heck cross coupling” (2007)
Active and inactive are the calls of the source. No cut-off for these calls is given here.

Key:
Jurkat [1] = assay: Inhibition of TNF gene expression in FRT Jurkat TNF reporter cells at 100 uM; type: functional; settings: Homo sapiens
Jurkat [2] = assay: Inhibition of TNF gene expression in FRT Jurkat TNF reporter cells at 10 uM; type: functional; settings: Homo sapiens
Jurkat [3] = assay: Inhibition of TNF gene expression in FRT-Jurkat TNF reporter cells at 1 uM; type: functional; settings: Homo sapiens
Jurkat [4] = assay: Increase in cell death in human FRT Jurkat TNF reporter cell; type: functional, cell-based
Jurkat [5] = assay: Increase in Cytotoxicity in human FRT Jurkat TNF reporter cell at 100 uM; type: functional, cell-based
Jurkat [6] = assay: Viability of the FRT Jurkat TNF reporter cells at 1 uM; type: functional, Homo sapiens
Jurkat [7] = assay: Increase in inhibition of TNF gene expression in FRT Jurkat TNF reporter cells after 30 hrs; type: functional, cell-based; settings: Homo sapiens

SMILES	inhibition at 100 µM (Jurkat [1]) [%]	further results
O=C1CCC(N2C(=O)c3cccc(C4CC=CO4)c3C2=O)C(=O)N1 (centres undefined)	50	
O=C1C=C(c2cccc(N3C(=O)c4ccccc4C3=O)c2)CCC1	47	
O=C1CCC(N2C(=O)c3cccc(/C=C/N4CCCC4=O)c3C2=O)C(=O)N1 (centres undefined)	38	
O=C1c2ccccc2C(=O)N1c1ccc(C2CC=CO2)cc1 (centres undefined)	38	
CCCCO/C=C/c1ccccc1N1C(=O)c2ccccc2C1=O	47	
O=C1CCC(N2C(=O)c3cccc(I)c3C2=O)C(=O)N1 (centres undefined)	37	
CCCCOC(=O)/C=C/c1ccc(N2C(=O)c3ccccc3C2=O)cc1	35	
CCCCO/C=C/c1cccc(N2C(=O)c3ccccc3C2=O)c1	49	
CCCCOC(=O)/C=C/c1cccc(N2C(=O)c3ccccc3C2=O)c1	35	
O=C1c2ccccc2C(=O)N1c1cccc(I)c1	37	
O=C1CCCN1/C=C/c1cccc(N2C(=O)c3ccccc3C2=O)c1	36	
COC(=O)/C=C/c1cccc(N2C(=O)c3ccccc3C2=O)c1	44	
O=C1c2ccccc2C(=O)N1c1ccccc1I	40	
O=C1CCC(N2C(=O)c3ccc(/C=C/N4CCCC4=O)cc3C2=O)C(=O)N1 (centres undefined)	36	
O=C1C=C(c2cccc3c2C(=O)N(C2CCC(=O)NC2=O)C3=O)CCC1 (centres undefined)	38	
CCCCOC(=O)/C=C/c1ccccc1N1C(=O)c2ccccc2C1=O	52	

SMILES	inhibition at 100 µM (Jurkat [1]) [%]	further results
O=C1CCC(N2C(=O)c3ccccc3C2=O)C(=O)N1 (centres undefined) [THALIDOMIDE]	38	inhibition at 10 µM (Jurkat [2]): 35%; inhibition at 1 µM (Jurkat [3]): 31%
O=C1CCC(N2C(=O)c3ccc(Br)cc3C2=O)C(=O)N1 (centres undefined)	35	
CCCCOC(=O)/C=C/c1ccc2c(c1)C(=O)N(C1CCC(=O)NC1=O)C2=O (centres undefined)	42	
COC(=O)/C=C/c1ccccc1N1C(=O)c2ccccc2C1=O	48	
O=C1CCC(N2C(=O)c3ccc(/C=C/C4CC=CO4)cc3C2=O)C(=O)N1 (centres undefined)	40	
O=C1c2ccccc2C(=O)N1c1cccc(C2CC=CO2)c1 (centres undefined)	50	
CCCCOC(=O)/C=C/c1cccc2c1C(=O)N(C1CCC(=O)NC1=O)C2=O (centres undefined)	44	
COC(=O)/C=C/c1ccc2c(c1)C(=O)N(C1CCC(=O)NC1=O)C2=O (centres undefined)	39	
CCCCO/C=C/c1ccc2c(c1)C(=O)N(C1CCC(=O)NC1=O)C2=O (centres undefined)	69	inhibition at 10 µM (Jurkat [2]): 52%; Activity (Jurkat [4]): Active; Activity (Jurkat [5]): Active; Activity (Jurkat [6]): 100%; inhibition at 1 µM (Jurkat [3]): 32%; Activity (Jurkat [7]): Dose-dependent effect
CCCCO/C=C/c1ccc(N2C(=O)c3ccccc3C2=O)cc1	48	
COC(=O)/C=C/c1cccc2c1C(=O)N(C1CCC(=O)NC1=O)C2=O (centres undefined)	40	
O=C1C=C(c2ccc3c(c2)C(=O)N(C2CCC(=O)NC2=O)C3=O)CCC1 (centres undefined)	35	
CCCCO/C=C/c1cccc2c1C(=O)N(C1CCC(=O)NC1=O)C2=O (centres undefined)	47	
O=C1c2ccccc2C(=O)N1c1ccc(I)cc1	36	
COC(=O)/C=C/c1ccc(N2C(=O)c3ccccc3C2=O)cc1	41	
